These molecules were tested on HBV (assay: HBV-DNA antiviral assay using HepG2.117 cells). Conditions: Hepatitis B virus, 72 h, intracellular HBV DNA by qPCR, 3 days incubation.
Type: cell-based, genotype D HBV
Experimental: The following assay procedure describes the HBV antiviral assay, using HepG2.117 cells, which carry a stably integrated genotype D HBV genome under the control of a Tet-off promoter, and intracellular HBV DNA quantification as endpoint. Cell viability is assessed in parallel by measuring the intracellular ATP content using ATPlite (Perkin Elmer).
On day 0, HepG2.117 cells (which are maintained in routine cell culture with doxycycline present in the medium at a final concentration of 1 μg/mL) were seeded in 96-well plates (white with clear bottom) at a density of 2.0×10^4 cells/well (0.1 mL/well) in medium without doxycycline to induce pgRNA transcription and subsequent formation of HBV particles. The cells were incubated at 37° C. and 5% CO2.
On day 1, medium was removed from each well, the test articles were diluted in culture medium without doxcycyline and 100 μL was added to cell culture wells (9 concentrations, 4-fold dilution). For each plate, 6 untreated (merely DMSO) wells were included. The final concentration of DMSO in the culture medium was 2%. Each plate was prepared in duplicate (one for HBV DNA extraction, one for ATPlite measurement). The cells were incubated at 37° C. and 5% CO2 for 3 days.
On day 4, cell viability was assessed using ATPlite and cell lysates were prepared for HBV DNA extraction and subsequent quantification by qPCR.
Medium was removed from each well and 100 μL of 0.33% NP-40 in H2O was added to each well. Plates were sealed, incubated at 4° C. for 5 mins, vortexed extensively and centrifuged briefly. Next, 35 μL of lysate was added to 65 μL QuickExtract DNA Extraction Solution (Epicentre) in a PCR plate for each well. PCR plate was incubated at 65° C. for 6 mins, 98° C. for 2 mins and finally cooled to 4° C. HBV DNA was then quantified by qPCR with HBV-specific primers and probes as specified in Table 1 using the Bio-Rad SSOAdvanced Universal Probes Supermix on a CFX96 machine (Bio-Rad). The PCR cycle program consisted of 95° C. for 3 mins, followed by 40 cycles at 95° C. for 10 sec and 60° C. for 30 sec.
A DNA standard was prepared by dilution of an IDT gBlock corresponding to the amplicon with concentrations ranging from 10^2 to 10^8 copies/input (i.e. per 4 μL) and used to generate a standard curve by plotting Cq values vs. HBV DNA standard concentration. The quantity of HBV DNA in each sample was determined by interpolating from the standard curve.
Cell viability was calculated as follows: % Cell viability=(luminescence value of test sample)/(average luminescence value of 2% DMSO control)×100%. HBV DNA inhibition was calculated as follows: 100−(HBV DNA copy number of test sample)/(average HBV DNA copy number of 2% DMSO control)×100%. No normalization to entecavir was required due to the excellent dynamic window of this assay. The CC50, EC50 and EC90 values were determined by dose-response curves fitted by GraphPad Prism using “log (agonist) vs. response—Variable slope”.
With `CNC(=O)c1ccc(-n2c(=O)c3c(n4ncc(Nc5ccccc5)c24)CN(C(=O)c2ccc(Br)c(Cl)c2)CC3)cc1` [Compound 40, 4-[5-anilino-12-(4-bromo-3-chloro-benzoyl)-8-oxo-2,3,7,12-tetrazatricyclo [7.4.0.0 2,6]trideca-1(9),3,5-trien-7-yl]-N-methyl-benzamide] the EC50 was no more than 100 nM. With `CC(C)NC(=O)c1ccc(-n2c(=O)c3c(n4ncc(Cc5ccccc5)c24)CN(C(=O)c2ccc(Br)c(Cl)c2)CC3)cc1` [Compound 64, 4-[5-benzyl-12-(4-bromo-3-chloro-benzoyl)-8-oxo-2,3,7,12-tetrazatricyclo [7.4.0.0 2,6]trideca-1(9),3,5-trien-7-yl]-N-isopropyl-benzamide] the EC50 was 500 to 5000 nM. With `CNC(=O)c1ccc(-n2c(=O)c3c(n4ncc(NCc5ccccc5)c24)CN(C(=O)c2ccc(Cl)c(Cl)c2)CC3)cc1` [Compound 42, 4-[5-(benzylamino)-12-(3,4-dichlorobenzoyl)-8-oxo-2,3,7,12-tetrazatricyclo [7.4.0.0 2,6]trideca-1(9),3,5-trien-7-yl]-N-methyl-benzamide] the EC50 was no more than 100 nM. For `O=C(c1ccc(Br)c(Cl)c1)N1CCc2c(n3ncc(Cc4ccccc4)c3n(-c3ccccc3)c2=O)C1` [Compound 12, 5-benzyl-12-(4-bromo-3-chlorobenzoyl)-7-phenyl-2,3,7,12-tetraazatricyclo[7.4.0.0^[2,6]]trideca-1(9),3,5-trien-8-one], the EC50 was 100 to 500 nM. `CNC(=O)c1ccc(-n2c(=O)c3c(n4ncc(NCc5ccccc5F)c24)CN(C(=O)c2ccc(Br)c(Cl)c2)CC3)cc1` [Compound 66, 4-[12-(4-bromo-3-chloro-benzoyl)-5-[(2-fluorophenyl)methylamino]-8-oxo-2,3,7,12-tetrazatricyclo [7.4.0.0 2,6]trideca-1(9),3,5-trien-7-yl]-N-methyl-benzamide] showed an EC50 of no more than 100 nM. `O=C(c1ccc(Br)c(F)c1)N1CCc2c(n3nccc3n(-c3ccccc3)c2=O)C1` [Compound 4, 8-(4-bromo-3-fluorobenzoyl)-4-phenyl-6,7,8,9-tetrahydropyrazolo[1,5-a]pyrido[4,3-e]pyrimidin-5(4H)-one] was tested, and the EC50 was greater than 5000 nM. With `CCNC(=O)c1ccc(-n2c(=O)c3c(n4ncc(Cc5ccccc5)c24)CN(C(=O)c2ccc(Br)c(Cl)c2)CC3)cc1` [Compound 61, 4-[5-benzyl-12-(4-bromo-3-chloro-benzoyl)-8-oxo-2,3,7,12-tetrazatricyclo [7.4.0.0 2,6]trideca-1(9),3,5-trien-7-yl]-N-ethyl-benzamide] the EC50 was 500 to 5000 nM. In the case of `CNC(=O)c1ccc(-n2c(=O)c3c(n4ncc(NCc5ccccc5)c24)CN(C(=O)c2ccc(Br)c(Cl)c2)CC3)cc1` [Compound 47, 4-[5-(benzylamino)-12-(4-bromo-3-chloro-benzoyl)-8-oxo-2,3,7,12-tetrazatricyclo [7.4.0.0 2,6]trideca-1(9),3,5-trien-7-yl]-N-methyl-benzamide], the EC50 is reported as no more than 100 nM. `COc1ccc(-n2c(=O)c3c(n4ncc(NS(=O)(=O)c5ccccc5)c24)CN(C(=O)c2ccc(Br)c(Cl)c2)CC3)cc1` [Compound 31, N-[12-(4-bromo-3-chloro-benzoyl)-7-(4-methoxyphenyl)-8-oxo-2,3,7,12-tetrazatricyclo [7.4.0.0 2,6]trideca-1(9),3,5-trien-5-yl] benzenesulfonamide] was tested, and the EC50 was no more than 100 nM. In the case of `CNC(=O)c1ccc(-n2c(=O)c3c(n4ncc(Cc5ccc(C#N)cc5)c24)CN(C(=O)c2ccc(Cl)c(Cl)c2)CC3)cc1` [Compound 48, 4-[5-[(4-cyanophenyl)methyl]-12-(3,4-dichlorobenzoyl)-8-oxo-2,3,7,12-tetrazatricyclo [7.4.0.0 2,6]trideca-1(9),3,5-trien-7-yl]-N-methyl-benzamide], the EC50 is reported as no more than 100 nM. `CNC(=O)c1ccc(-n2c(=O)c3c(n4ncc(Nc5ccc(F)cc5)c24)CN(C(=O)c2ccc(Br)c(Cl)c2)CC3)cc1` [Compound 54, 4-[12-(4-bromo-3-chloro-benzoyl)-5-(4-fluoroanilino)-8-oxo-2,3,7,12-tetrazatricyclo [7.4.0.0 2,6]trideca-1(9),3,5-trien-7-yl]-N-methyl-benzamide] gave an EC50 of no more than 100 nM. For `CC(C)CNC(=O)c1cnn2c3c(c(=O)n(-c4ccccc4)c12)CCN(C(=O)c1ccc(Cl)c(Cl)c1)C3` [Compound 19, 12-(3,4-dichlorobenzoyl)-N-isobutyl-8-oxo-7-phenyl-2,3,7,12-tetrazatricyclo [7.4.0.0^2,6] trideca-1(9),3,5-triene-5-carboxamide], the EC50 was greater than 5000 nM. `CNC(=O)c1ccc(-n2c(=O)c3c(n4ncc(Nc5ccc(F)cc5)c24)CN(C(=O)c2ccc(Br)c(C#N)c2)CC3)cc1` [Compound 63, 4-[12-(4-bromo-3-cyano-benzoyl)-5-(4-fluoroanilino)-8-oxo-2,3,7,12-tetrazatricyclo [7.4.0.0 2,6]trideca-1(9),3,5-trien-7-yl]-N-methyl-benzamide] was tested, and the EC50 was 100 to 500 nM. Molecule `CNC(=O)c1ccc(-n2c(=O)c3c(n4ncc([C@@H](C)c5ccccc5)c24)CN(C(=O)c2ccc(Br)c(C#N)c2)CC3)cc1` (stereo in doubt) [Compound 58, 4-[12-(4-bromo-3-cyano-benzoyl)-8-oxo-5-[rac-(1S)-1-phenylethyl]-2,3,7,12-tetrazatricyclo [7.4.0.0 2,6]trideca-1(9),3,5-trien-7-yl]-N-methyl-benzamide] has an EC50 of no more than 100 nM.

Same assay, conditions: intracellular HBV DNA by qPCR, 3 days incubation
`COc1ccc(-n2c(=O)c3c(n4ncc(Nc5ccccc5)c24)CN(C(=O)c2ccc(Br)c(Cl)c2)CC3)cc1` [Compound 32, 12-(4-bromo-3-chlorobenzoyl)-7-(4-methoxyphenyl)-5-(phenylamino)-2,3,7,12-tetraazatricyclo[7.4.0.0^[2,6]]trideca-1(9),3,5-trien-8-one] showed an EC50 of no more than 100 nM. In the case of `CNC(=O)c1ccc(-n2c(=O)c3c(n4ncc(Cc5ccccc5)c24)CN(C(=O)c2ccc(Br)c(Cl)c2)C(C)C3)cc1` (single isomer, unassigned) [Compound 71, 4-[(11R*)-5-benzyl-12-(4-bromo-3-chlorobenzoyl)-11-methyl-8-oxo-2,3,7,12-tetraazatricyclo[7.4.0.0^[2,6]]trideca-1(9),3,5-trien-7-yl]-N-methylbenzamide], the EC50 is reported as no more than 100 nM. For `Cc1cc2n(-c3ccccc3)c(=O)c3c(n2n1)CN(C(=O)c1ccc(Br)c(F)c1)CC3` [Compound 7, 12-(4-bromo-3-fluorobenzoyl)-4-methyl-7-phenyl-2,3,7,12-tetraazatricyclo[7.4.0.0^[2,6]]trideca-1(9),3,5-trien-8-one], the EC50 was greater than 5000 nM. Work on `O=C(c1ccc(Cl)c(Cl)c1)N1CCc2c(n3ncc(NCc4ccccc4)c3n(-c3ccccc3)c2=O)C1` [Compound 18, 5-(benzylamino)-12-(3,4-dichlorobenzoyl)-7-phenyl-2,3,7,12-tetraazatricyclo[7.4.0.0^[2,6]]trideca-1(9),3,5-trien-8-one] yielded an EC50 of 500 to 5000 nM. For `COc1ccc(-n2c(=O)c3c(n4ncc(NC(C)=O)c24)CN(C(=O)c2ccc(Cl)c(Cl)c2)CC3)cc1` [Compound 21, N-[12-(3,4-dichlorobenzoyl)-7-(4-methoxyphenyl)-8-oxo-2,3,7,12-tetrazatricyclo [7.4.0.0^2,6]trideca-1(9),3,5-trien-5-yl]acetamide], the EC50 was greater than 5000 nM. Work on `COc1ccc(-n2c(=O)c3c(n4ncc(NC(=O)C(C)C)c24)CN(C(=O)c2ccc(Cl)c(Cl)c2)CC3)cc1` [Compound 22, N-[12-(3,4-dichlorobenzoyl)-7-(4-methoxyphenyl)-8-oxo-2,3,7,12-tetrazatricyclo [7.4.0.0^2,6]trideca-1(9),3,5-trien-5-yl]-2-methyl-propanamide] yielded an EC50 greater than 5000 nM.

From US11136321B2, “Tricyclic compounds” (ALIGOS THERAPEUTICS, INC., priority 2019, dated 2021)
